# Experimental data: patent US7498406B2, “Substantially cell membrane impermeable compound and use thereof” (priority 1999, dated 2009)
# Where two headings read alike, the source gives them in different places.
# Columns and labels:
# PBMC = assay: Cell number and cell viability in the PBMC HIV assay; conditions: 10 μM
# Description: PBMC's (1×10^6 per mL) were incubated with GSAA or GSAO (10 μM) for 30 minutes at 37° C. and then with primary HIV isolates (HN11, HN68 or HN70 at 50 TCID50 per 10^6 cells) for 2 hours at 37° C. Cells were washed and incubated in complete medium containing GSAA or GSAO (10 μM) at 5% CO2 and 37° C. for up to 7 days. At the indicated times the conditioned medium was collected and assayed for p24 antigen and cell number and cell viability was determined.
# The primary HIV isolates, HN11, HN68 and HN70, were provided by Dr. Hassan Naif, Centre for Virus Research, Westmead Millennium Institute, NSW, Australia. […] The blood was diluted 1:2 with PBS, layered onto Ficoll-Hypaque (35 mL blood onto 15 mL Ficoll-Hypaque) in 50 mL Falcon tubes and centrifuged at 400 g for 20 minutes at 20° C. The PBMC's were collected and pelleted at 1200 rpm for 10 minutes to remove platelets, resuspended at 2×10^6 cells per mL in RPMI containing 20% horse serum (Gibco BRL, Gaithersburg, Md.), 10 μg per mL phytohemagglutinin-M (PHA-M, Boehringer Mannheim Biochemica, Mannheim, Germany) and […] interleukin-2 (Sigma, St. Louis, Mo.) and incubated for 2 days at 5% CO2 and 37° C., PBMC (1×10^6 per mL) were incubated with GSAO or GSAA (10 μM) for 30 minutes at 37° C. in serum-free media. Virus was added at 50 TCID50 per 10^6 cells for 2 hours at 37° C.. […]
# [1] = Binding of GSAO to dithiol, loss of thiols in DTNB assay; conditions: for Kd: errors are 1 SD, read-out: Dissociation Constant
# Description: FIG. 12. Interaction of GSAO with synthetic, peptide and protein dithiols. DMP (A) (15 μM), 6,8-thioctic acid (B) ([…]), dithiothreitol (C) (8.5 μM), TrpCysGlyProCysLys (D) (4.6 μM), TrpCysGlyHisCysLys (E) (5.5 μM) or thioredoxin (F) (4.1 μM corresponding to 20.6 μM thiols) was incubated with GSAO (0-56 μM) for 10 minutes. DTNB (950 μM) was then added and the reactions incubated for a further 10 minutes. The concentration of thiol in the reactions was determined from the absorbance of the TNB dianion at 412 nm. The solid lines represent the best non-linear least squares fit of the data to Equation 1 (A to E) or Equation 2 (F) and have been drawn using the parameter estimates in Table 1. The dotted line in part A represents a simulated titration assuming an infinite affinity of GSAO for the dithiol. GSAO bound to both synthetic, peptide and protein dithiols with dissociation constants in the range 130 nM to 1.4 μM.
# A stock solution of DMP (5 μL, 50 μmol) was dissolved in DMSO (995 μL), giving a concentration of 50 mM DMP, A second dilution of the 50 mM DMP stock solution (10 μL) in pH 7.0 buffer (0.1 M HEPES, 0.3 M NaCl, 1 mM EDTA) (990 μL) gave a working solution of 500 ? M DMP. The activity of the arsenical could then be determined by the titration of varying amounts of arsenical against the DMP working solution (10 μL) in a 96-well microtitre plate, with the total volume made up to 195 μL by addition of buffer. After a 10 minute incubation at room temperature, during which time the solutions were agitated on a plate shaker, 5 μL of a 37.9 mM stock solution of DTNB (15 mg) in DMSO (1 mL) was added, and the plate incubated with shaking for another 10 minutes. The absorbance at 412 nm due to the formation of the TNB dianion was measured using a Molecular Devices Thermomax Plus (Palo Alto, Calif.) microplate reader. The extinction coefficient for the TNB dianion at pH 7.0 is 14, 150 M^−1cm^−1 at 412 nm (Riddles et al., 1983).
# Binding of GSAO to dithiols was measured from loss of thiols using the DTNB assay described above. The dissociation constant, Kd, for GSAO binding to dithiols was determined by incubating increasing concentrations of GSAO, I, with a fixed dithiol concentration, [S]T, and measuring the remaining dithiol using DTNB. Note that the concentration of dithiol equals half the TNB concentration. The concentration of dithiol.GSAO complex, SI, as a function of the total GSAO concentration, [I]T, is described by Equation 1 (Hogg and Jackson, 1990), [SI]=0.5.{([S]T+x.[I]T+Kd)−(([S]T+x.[I]T+Kd)^2−4.[S]T.x.[I]T)^0.5} (1)
# where x is a factor that, when multiplied together with [I]T, will yield the active concentration of GSAO. […]
# Human bone marrow cells = assay: 12 day human bone marrow culture assay, granulocyte/macrophage colonies; format: cell-based; conditions: 12 days, 0 to 100 μM
# Description: FIG. 20. Effect of GSAO on proliferation of bone marrow progenitor cells. Human bone marrow cells were incubated in semi-solid agar containing 20% BGS, 1 ng per mL IL-3 and 0 to 100 μM GSAA or GSAO for 12 days. Granulocyte/macrophage colonies of 40 or more cells were counted under an inverted microscope. The data points and errors represent the mean and SE of quadruplicate cultures.
# GSAO reduced the number of granulocyte/macrophage colonies in a 12 day human bone marrow culture assay with an IC50 of ˜30 μM (FIG. 20). […] Human bone marrow cells (˜5×10^5 cells per mL) were added to semi-solid agar in DMEM containing 20% BCS, […] IL-3 and 0 to 100 μM GSAA or GSAO. The cultures were incubated for 12 days at 37° C. and 5% CO2 and clusters of 40 or more cells were counted under an inverted microscope according to Metcalf (1977).
SMILES,proliferation of PBMC's (PBMC),viability of PBMC's (PBMC; 7 days),"interaction with DMP in DTNB titration ([1]; DMP 15 μM, GSAO 0-50 μM, 10 minutes)",Kd ([1]; ring size 5),Kd ([1]; ring size 6),Kd ([1]; ring size 7),IC50 for reduction of the number of granulocyte/macrophage colonies (Human bone marrow cells)
"NC(CCC(=O)NC(CSCC(=O)Nc1ccc([As]=O)cc1)C(=O)NCC(=O)O)C(=O)O (stereo not shown) [GSAO, 4-(N-(S-glutathionylacetyl)amino)-phenylarsenoxide]",inhibited proliferation,no effect of cell viability,bound to DMP and prevented interaction of the dithiol with DTNB,130 nM,200 ± 50 nM,420 nM,–
"N[C@@H](CCC(=O)N[C@@H](CSCC(=O)Nc1ccc([As](=O)(O)O)cc1)C(=O)NCC(=O)O)C(=O)O [GSAA, 4-(N-(S-glutathionylacetyl)amino)phenylarsonic acid, reference compound]",–,–,–,–,–,–,no effect on colony numbers
